Measured values as given in paper PMC10247784, “Physiological activation of human and mouse bitter taste receptors by bile acids” (Communications Biology, 2023).

Target: T1, mouse Tas2r126 (Mus musculus, UniProt P59532)
T1 construct: expressed in transfected cells; host or cells: HEK293T-Gα16gust44
T1 sequence (P59532 1-308): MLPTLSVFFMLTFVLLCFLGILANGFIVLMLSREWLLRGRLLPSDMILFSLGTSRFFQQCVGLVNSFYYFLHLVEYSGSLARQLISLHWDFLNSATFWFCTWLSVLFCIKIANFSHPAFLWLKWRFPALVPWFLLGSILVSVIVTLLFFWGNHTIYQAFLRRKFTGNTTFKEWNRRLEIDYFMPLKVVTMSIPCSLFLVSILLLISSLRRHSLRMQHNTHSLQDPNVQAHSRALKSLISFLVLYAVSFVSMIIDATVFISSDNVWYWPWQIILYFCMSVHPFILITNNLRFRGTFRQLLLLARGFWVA
Experiment: Calcium imaging assay (FLIPR), HEK293T-Gα16gust44 cells transfected with mouse Tas2r126
Type: cell-based
Method: This set of bile acids was chosen because of their commercial availability in high purities, their diversity within the class of bile acids and their previous detection and quantitation in human blood. Stock solutions were prepared in DMSO.
As basal growth medium for the HEK293T-Gα16gust44 cell line[17],[59] served Dulbecco’s modified eagle medium (DMEM) (Thermo Fisher Scientific, Darmstadt, Germany) supplemented with 10 % fetal bovine serum (Sigma-Aldrich, Steinheim, Germany), 2 mM L-glutamine (Sigma-Aldrich, Steinheim, Germany), 100 units/ml penicillin (Sigma Aldrich, Steinheim, Germany) and 100 µg/ml streptomycin (Sigma Aldrich, Steinheim, Germany). Growth conditions were 37 °C, 5 % CO2 and saturated air-humidity[60].
HEK293T-Gα16gust44 cells were seeded on poly-D-lysine (10 µg/ml) coated 96-well plates to reach a confluence of 40-60 % the next day. For transient transfection 150 ng of plasmid DNA containing the receptor of interest and 0.3 µl lipofectamine 2000 (Thermo Fisher Scientific, Darmstadt, Germany) per well were used and transfection took place according to the manual of lipofectamine 2000. […] The empty vector DNA (mock) was transfected as negative control[14],[41].
Cells were loaded using the calcium-sensitive fluorescent dye Fluo-4-AM (Abcam, Cambridge, Great Britain) in the presence of 2.5 mM probenecid (Sigma-Aldrich, Steinheim, Germany) the day after transfection[13],[41]. 1 h after loading, cells were washed with C1 buffer using a BioTek Cell Washer, incubated in the dark for half an hour and washed again. For automated agonist application and measurement of fluorescence changes, a FLIPR^TETRA device (Molecular Devices, San José, United States) was used. Viability of cells was tested by application of 100 nM Somatostatin 14 (Bachem, Bubendorf, Switzerland)[42].
Measured data were negative control corrected by subtracting the signal of the mock-transfected cells and exported to Microsoft Excel using the FLIPR software ScreenWorks 4.2. In Microsoft Excel software, standardization of maximum fluorescence intensities to the basal fluorescence and normalization to the buffer-only control was done to calculate the relative fluorescence changes (ΔF/F).
Initial screening experiments performed in duplicate wells were confirmed by at least one replication and representative traces were selected for display. All dose-response relationships were determined by three independent experiments (biological replicates) performed in duplicates (technical replicates). Threshold concentrations, defined as lowest substance concentrations leading to statistically significant elevated fluorescence changes in receptor-transfected cells compared with empty vector-transfected cells, were determined using SigmaPlot with Student’s t-test to evaluate statistical significance (p < 0.01).

`C[C@H](CCC(=O)O)[C@H]1CC[C@H]2[C@@H]3[C@H](O)C[C@@H]4C[C@H](O)CC[C@]4(C)[C@H]3C[C@H](O)[C@]12C` [Cholic Acid, cholic acid] showed an RLU (Time 0 s) of 0 RLU, an RLU (Time 2 s) of 6.32 RLU and an RLU (Time 4 s) of -17.4742 RLU. It also gave an RLU (Time 6 s) of 5.446 RLU, an RLU (Time 8 s) of 10.1237 RLU and an RLU (Time 12 s) of 18.7423 RLU. For the same compound, the RLU (Time 14 s) was -3.953 RLU, the RLU (Time 16 s) was -7.647 RLU and the RLU (Time 18 s) was 11.4341 RLU. It also gave an RLU (Time 18.781 s) of -6.409 RLU, an RLU (Time 20.781 s) of -22.1196 RLU and an RLU (Time 22.781 s) of 57.6732 RLU. It also gave an RLU (Time 24.781 s) of 119.461 RLU, an RLU (Time 26.781 s) of 150.574 RLU and an RLU (Time 28.781 s) of 265.727 RLU. The RLU (Time 30.781 s) was 370.327 RLU, the RLU (Time 32.781 s) was 482.177 RLU and the RLU (Time 34.781 s) was 570.785 RLU. The RLU (Time 36.781 s) was 665.431 RLU, the RLU (Time 38.781 s) was 689.631 RLU and the RLU (Time 40.781 s) was 736.63 RLU. It also gave an RLU (Time 42.781 s) of 773.753 RLU, an RLU (Time 44.781 s) of 819.752 RLU and an RLU (Time 46.781 s) of 829.41 RLU. The RLU (Time 48.781 s) was 884.282 RLU, the RLU (Time 50.781 s) was 903.917 RLU and the RLU (Time 52.781 s) was 907.88 RLU. For the same compound, the RLU (Time 54.781 s) was 897.488 RLU, the RLU (Time 56.781 s) was 894.491 RLU and the RLU (Time 58.781 s) was 914.837 RLU. The RLU (Time 60.781 s) was 925.711 RLU, the RLU (Time 62.781 s) was 919.134 RLU and the RLU (Time 64.781 s) was 943.476 RLU. For the same compound, the RLU (Time 66.781 s) was 923.886 RLU, the RLU (Time 68.781 s) was 937.947 RLU and the RLU (Time 70.781 s) was 951.397 RLU. It also gave an RLU (Time 72.781 s) of 951.831 RLU, an RLU (Time 74.781 s) of 959.178 RLU and an RLU (Time 76.781 s) of 961.002 RLU. The RLU (Time 78.781 s) was 948.826 RLU, the RLU (Time 80.781 s) was 939.325 RLU and the RLU (Time 82.781 s) was 951.223 RLU. It also gave an RLU (Time 84.781 s) of 936.985 RLU, an RLU (Time 86.781 s) of 922.709 RLU and an RLU (Time 88.781 s) of 911.664 RLU. It also gave an RLU (Time 90.781 s) of 942.653 RLU, an RLU (Time 92.781 s) of 908.427 RLU and an RLU (Time 94.781 s) of 912.682 RLU. It also gave an RLU (Time 96.781 s) of 907.486 RLU, an RLU (Time 98.781 s) of 899.352 RLU and an RLU (Time 100.781 s) of 901.766 RLU. It also gave an RLU (Time 102.781 s) of 898.622 RLU, an RLU (Time 104.781 s) of 885.627 RLU and an RLU (Time 106.781 s) of 885.616 RLU. It also gave an RLU (Time 108.781 s) of 859.767 RLU, an RLU (Time 110.781 s) of 849.777 RLU and an RLU (Time 112.781 s) of 824.416 RLU. For the same compound, the RLU (Time 114.781 s) was 805.273 RLU, the RLU (Time 116.781 s) was 784.094 RLU and the RLU (Time 118.781 s) was 781.757 RLU. For the same compound, the RLU (Time 120.781 s) was 784.883 RLU, the RLU (Time 122.781 s) was 777.647 RLU and the RLU (Time 124.781 s) was 774.835 RLU. It also gave an RLU (Time 126.781 s) of 752.144 RLU, an RLU (Time 128.781 s) of 755.376 RLU and an RLU (Time 130.781 s) of 741.203 RLU. It also gave an RLU (Time 132.781 s) of 735.986 RLU, an RLU (Time 134.781 s) of 705.295 RLU and an RLU (Time 136.781 s) of 715.373 RLU. For the same compound, the RLU (Time 137.563 s) was 694.021 RLU, the RLU (Time 143.563 s) was 674.141 RLU and the RLU (Time 149.563 s) was 648.129 RLU. It also gave an RLU (Time 155.563 s) of 630.623 RLU, an RLU (Time 161.563 s) of 621.371 RLU and an RLU (Time 167.563 s) of 569.451 RLU. It also gave an RLU (Time 173.563 s) of 563.656 RLU, an RLU (Time 179.563 s) of 519.424 RLU and an RLU (Time 185.563 s) of 518.545 RLU. The RLU (Time 191.563 s) was 496.035 RLU, the RLU (Time 197.563 s) was 519.073 RLU and the RLU (Time 203.563 s) was 511.704 RLU. The RLU (Time 209.563 s) was 507.09 RLU, the RLU (Time 215.563 s) was 499.344 RLU and the RLU (Time 221.563 s) was 510.025 RLU. It also gave an RLU (Time 227.563 s) of 524.879 RLU, an RLU (Time 233.563 s) of 522.75 RLU and an RLU (Time 239.563 s) of 547.672 RLU. For the same compound, the RLU (Time 245.563 s) was 498.436 RLU, the RLU (Time 293.563 s) was 489.083 RLU and the RLU (Time 299.563 s) was 473.554 RLU. The RLU (Time 305.563 s) was 449.101 RLU, the RLU (Time 311.563 s) was 467.667 RLU and the RLU (Time 317.563 s) was 473.372 RLU. For the same compound, the RLU (Time 323.563 s) was 461.769 RLU, the RLU (Time 329.563 s) was 454.066 RLU and the RLU (Time 335.563 s) was 446.164 RLU. The RLU (Time 341.563 s) was 461.362 RLU, the RLU (Time 347.563 s) was 456.539 RLU and the RLU (Time 353.563 s) was 466.548 RLU. The RLU (Time 359.563 s) was 455.13 RLU and the “Activation threshold concentration Tas2r126” value (p < 0.01 vs empty vector) was 100 µM.
